The values that follow come from article PMC4864240, “Biotype Characterization, Developmental Profiling, Insecticide Response and Binding Property of Bemisia tabaci Chemosensory Proteins: Role of CSP in Insect Defense” (PLoS ONE, 2016).

In one data set the target is T1, BtabCSP1 (Bemisia tabaci, UniProt D6N3A3).
T1 sequence (D6N3A3 20-126): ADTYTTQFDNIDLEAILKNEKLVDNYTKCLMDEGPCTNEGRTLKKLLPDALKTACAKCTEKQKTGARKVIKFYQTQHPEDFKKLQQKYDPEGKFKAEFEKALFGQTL
The experiment in a line: biochemical. It counts as binding. On the procedure:
(§1) Protein-ligand binding affinity was determined for the three recombinant proteins. Emission fluorescence spectra were recorded on a Jasco FP-6500 Series fluorescence spectrofluorometer. […] Fluorescence was measured using an exciting wavelength of 337 nm. Emission spectrum was recorded between 350 and 500 nm.

The test system of data set [1] is B. tabaci Q-biotype adults. Description: Thiamethoxam cotton leaf-dip exposure, gene expression by qRT-PCR, biotype Q. Format: in vivo, Bemisia tabaci. The method, then:
(§2) One-step Reverse transcriptase PCR (TAKARA Bio. Inc) was used to check for tissue-distribution of CSP1 following the method described in Liu et al.. qRT-PCR was used to measure the changes of CSP1, CSP2 and CSP3 gene expression during development and over insecticide exposure. In a typical qRT-PCR experiment, cDNA templates (20 ng/μl) were used in a total volume of 20 μl containing SYBR Green I PCR Master Mix (Roche) and 200 nM of each primer, using 96-well optical-grade PCR plates and matched optical-grade membrane of StepOne Plus ABI system. qPCR primers were specifically designed to generate an amplicon of about 100–150 bps:
(§3) qRT-PCR products were sequenced to attest primer specificity. Each sample in B and Q was analyzed in triplicates. Three biological samples were used for each time point at each developmental stage and in the experiments on the effects of insecticide on the expression of CSP genes (see below). Reactions were run in a StepOne Plus system with initial denaturing step consisting of 2 min at 50°C and 10 min at 95°C, followed by 40 cycles of 15 s at 95°C-30 s at 60°C and terminated by a dissociation curve program from 60 to 95°C with a heating rate of 0.1°C and a continuous fluorescence acquisition. Expression levels were determined using the relative 2(-Delta Delta C(T)) method. Data were statistically analyzed by one-way Anova in SPSS.
(§4) Thiamethoxam is one major neonicotinoid insecticide, known to act on the nicotinic acetylcholine receptors (nAChR) within the insect central nervous system. To expose B. tabaci to the neonicotinoid insecticide thiamethoxam (25% WG, Syngenta, China), we chose the cotton leaf-dip method. One week<-old adult forms from the laboratory colonies of B- and Q-biotypes of B. tabaci were collected separately and exposed in the laboratory conditions (26°C temperature, 60% humidity, 16/8 h day/night) to 0, 6.25, 12.5, 25 and 50 μg/ml of thiamethoxam, respectively. Significant mortality rate was observed only for higher doses […] at different exposure time.
(§5) The experiment started (time 0) when insecticide treated and non-treated plant discs (2.5 cm diameter) were individually placed on agar base in 20-ml glass vials.Twenty-eight whiteflies belonging either to B or Q-biotype were aspirated into each vial. Vials were capped with an absorbent cotton stopper and inverted. Insecticide-treated whiteflies fed in treated vials on cotton plant leaf discs dipped for 10 s in formulated thiamethoxam diluted with distilled water. Whiteflies kept in vials containing cotton plant leaf discs of the same diameter dipped for 10 s in distilled water only were used as controls (0 μg/ml of thiamethoxam). After 1, 4, 24, 48 and 72 h post-exposure, all individuals in each category were collected in an eppendorf tube in treated and untreated groups of whiteflies in each of the two biotypes, kept on ice for 10 min and freeze-dried in nitrogen before storage at -70°C.
(In general: Real-time PCR tracks product formation cycle by cycle.)

The subject of data set [2] is B. tabaci B-biotype adults. The experiment in a line: Thiamethoxam cotton leaf-dip exposure, gene expression by qRT-PCR, biotype B. Format: in vivo, Bemisia tabaci. On the procedure: as §2, §3, §4
as §5, with “After 1, 4, 24, 48 and 72 h post-exposure, all individuals in each category were collected in an eppendorf tube in treated and untreated groups of whiteflies in each of the two biotypes, kept on ice for 10 min and freeze-dried in nitrogen before storage at -70°C.” left out

In data set [3] the test system is B- and Q-biotypes of B. tabaci. Description: Thiamethoxam cotton leaf-dip exposure, mortality. Format: in vivo, Bemisia tabaci. On the procedure:
as §4
as §5, with “After 1, 4, 24, 48 and 72 h post-exposure, all individuals in each category were collected in an eppendorf tube in treated and untreated groups of whiteflies in each of the two biotypes, kept on ice for 10 min and freeze-dried in nitrogen before storage at -70°C.” left out

The target of the next data set is T2, BtabCSP2 (Bemisia tabaci, UniProt H6UKS9).
T2 sequence (H6UKS9 22-131): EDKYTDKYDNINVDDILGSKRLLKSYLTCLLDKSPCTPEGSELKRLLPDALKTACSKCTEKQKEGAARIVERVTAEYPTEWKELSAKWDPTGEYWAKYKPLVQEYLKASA
Description: biochemical. It counts as binding. The method, then: as §1

The target of another data set is T3, BtabCSP3 (Bemisia tabaci, UniProt A0A097GUB5).
T3 sequence (A0A097GUB5 21-138): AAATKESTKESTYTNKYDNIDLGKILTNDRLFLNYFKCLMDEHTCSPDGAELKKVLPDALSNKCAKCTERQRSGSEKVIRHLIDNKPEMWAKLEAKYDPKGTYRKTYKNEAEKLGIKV
Description: biochemical. It counts as binding. On the procedure:
as §1

[4] abbreviates: u.d. = binding constant not calculated, IC50>100 μM, read-out: BtabCSP1 Ki (u.d.).
[5] abbreviates: u.d. = binding constant not calculated, IC50>100 μM, read-out: BtabCSP2 Ki (u.d.).
Setting [6] is: u.d. = binding constant not calculated, IC50>100 μM, read-out: BtabCSP3 Ki (u.d.).
The mark [7] stands for this setting: displacement of 1-NPN, read-out: IC50, BtabCSP1.
The mark [8] stands for this setting: BtabCSP1 Ki (u.d.), u.d. = binding constant not calculated, IC50>100 μM.

Read-outs that look alike come from different tables or passages of the source. Bounds are passed on as bounds.

`CN1COCN(Cc2cnc(Cl)s2)/C1=N\[N+](=O)[O-]` [Thiamethoxam]: on BtabCSP1, the IC50 – broadly, the concentration that gives 50% inhibition – is above 50 µM. Also, the “CSP2 and CSP3 expression” value is “no time/dose effect” in data set [1] (1-72 h, 0-50 μg/ml) and “no time/dose effect” in data set [2] (1-72 h, 0-50 μg/ml). Further, the CSP1 gene expression result was “no changes” in data set [1] (1 and 4 h, all five doses); “gradual increase” in data set [1] (24 h, gradual concentrations); “No effects” in data set [1] (48 h); “no changes” in data set [2] (1 and 4 h, all five doses). For the same molecule, in data set [1] (72 h exposure, 12.5 and 50 μg/ml), the “increase in CSP1 gene expression (factor)” value was 10–25. In addition, the CYP6CM1 expression result in data set [1] (sublethal dose) is “increased”. Further, in data set [1] (sublethal doses, 24 and 72 h), the CSP1 expression up-regulated is given as 10–20 fold. Also, the “CSP1 expression, time/dose effect” value in data set [2] (1-72 h, 0-50 μg/ml) is on record as “did not observe such a time/dose effect”. In addition, the CYP6CX1 expression result in data set [2] (sublethal dose) is “reduced”. The mortality entry in data set [3] (100 μg/ml, 72 h exposure) is given as “killed most of the whiteflies”. Also, the “doses with significant mortality rate” value in data set [3] (different exposure time) is above 100 µg/mL.
Consider `CCCCCCCCCCCCC` [n-Tridecane], for which the Ki at BtabCSP1 (setting [4]), on BtabCSP2 (setting [5]) and on BtabCSP3 (setting [6]) was above 100 µM each time.
Consider `CCCCCCC` [n-Heptane], for which the half-inhibitory concentration (IC50) at BtabCSP1 (setting [7]) lay within 14.6 to 95.1 µM. Besides, the Ki at BtabCSP1 (setting [4]), on BtabCSP2 (setting [5]) and on BtabCSP3 (setting [6]) was above 100 µM each time.
As to `CCC/C=C/COC(=O)CCC` [(E)-2-Hexenyl butyrate], the inhibition constant Ki on BtabCSP1 (setting [4]), on BtabCSP2 (setting [5]) and at BtabCSP3 (setting [6]) was above 100 µM each time.
As to `CCCCCCCCCC(=O)O` [Decanoic acid], the half-maximal inhibitory concentration (IC50) at BtabCSP1 is 14.6 to 95.1 µM. Further, the inhibitory constant (Ki) at BtabCSP1 (setting [8]), at BtabCSP2 and at BtabCSP3 was above 100 µM each time.
As for `C=CC(C)(O)CCC=C(C)C` (centres unmarked) [Linalool], the IC50 on BtabCSP1 (setting [7]) is 14.6 to 95.1 µM. Besides, the Ki at BtabCSP1 (setting [4]), on BtabCSP2 (setting [5]) and at BtabCSP3 (setting [6]) was above 100 µM in each case.
Consider `C=C(C)[C@H]1CC=C(C)CC1` [R(+)-Limonene], for which the inhibition constant (Ki) (in general, the equilibrium dissociation constant of an inhibitor or competing ligand from its target) is 47.8 ± 1.56 µM on BtabCSP1 (competitive binding vs 1-NPN, three replicates ± SD, read-out: BtabCSP1 Ki); above 100 µM at BtabCSP2 (setting [5]); above 100 µM on BtabCSP3 (setting [6]).
As for `CC(=O)c1ccc(C)cc1C` [2, 4′-Dimethylacetophenone], the Ki on BtabCSP1 (setting [8]), on BtabCSP2 and on BtabCSP3 was above 100 µM each time.
